Experimental data reported in ChEMBL document CHEMBL5230090, “Recent progress in Keap1-Nrf2 protein-protein interaction inhibitors” (Eur J Med Chem, 2020).
Several values for one entry are separate records, joined by “and”; a condition that tells them apart may be missing. Identical values can stand only once. Starred links: 1 amine or outer side, 2 acyl side, 3 side chain; linkers in the order of their positions; H or OH if unused. Positions of bridges follow the written chain, without caps; N, C: chain ends. Non-standard residues stand in square brackets, D forms with d. Residues, ends and D or L forms follow the SMILES beside them. Chains are numbered I, II in the order given. X1 = NC(=O)[C@H](CCCCNC(=O)COCCOCCN[*:1])N[*:2]; 2Nal = N[C@@H](Cc1ccc2ccccc2c1)C(=O)O; CH2CH2 = C(C[*:2])[*:1]

Experiments:
[1] = target: T1, Kelch-like ECH-associated protein 1 (Homo sapiens, UniProt Q14145); assay: Binding affinity to human KEAP1 Kelch domain by SPR direct binding assay
Keap1/Nrf2 [2] = target: T2, Keap1/Nrf2 (Homo sapiens, UniProt Q14145)
[3] = target: T1, Kelch-like ECH-associated protein 1
[4] = target: T1, Kelch-like ECH-associated protein 1; remark: listed apart in the source
Keap1/Nrf2 [5] = target: T2, Keap1/Nrf2; remark: listed apart in the source
[6] = target: T1, Kelch-like ECH-associated protein 1; assay: Binding affinity to human KEAP1 by fluorescence anisotropy assay
Keap1/Nrf2 [7] = target: T2, Keap1/Nrf2; assay: Inhibition of human Keap1-Nrf2 protein-protein interaction expressed in U2OS cells incubated for 6 hrs by cellular Keap1-Nrf2 functional assay; type: cell-based
[8] = target: T1, Kelch-like ECH-associated protein 1; assay: Binding affinity to human KEAP1 by fluorescence polarization assay
[9] = target: T1, Kelch-like ECH-associated protein 1; assay: Binding affinity to human KEAP1 Kelch domain (residues Ala321-Thr609) expressed in Escherichia coli BL21(DE3) cells assessed as dissociation constant by isothermal titration calorimetric analysis
[10] = target: T1, Kelch-like ECH-associated protein 1; assay: Binding affinity to human KEAP1 Kelch domain (residues Ala321-Thr609) expressed in Escherichia coli BL21(DE3) cells assessed as dissociation constant by SPR direct binding assay
[11] = target: T1, Kelch-like ECH-associated protein 1; assay: Binding affinity to human KEAP1 incubated for 1 hr by absorbance based analysis
Keap1/Nrf2 [12] = target: T2, Keap1/Nrf2; assay: Inhibition of human Keap1-Nrf2 protein-protein interaction by ELISA method; type: protein assay

T1 sequence (Q14145 whole entry, the tested form may be a part): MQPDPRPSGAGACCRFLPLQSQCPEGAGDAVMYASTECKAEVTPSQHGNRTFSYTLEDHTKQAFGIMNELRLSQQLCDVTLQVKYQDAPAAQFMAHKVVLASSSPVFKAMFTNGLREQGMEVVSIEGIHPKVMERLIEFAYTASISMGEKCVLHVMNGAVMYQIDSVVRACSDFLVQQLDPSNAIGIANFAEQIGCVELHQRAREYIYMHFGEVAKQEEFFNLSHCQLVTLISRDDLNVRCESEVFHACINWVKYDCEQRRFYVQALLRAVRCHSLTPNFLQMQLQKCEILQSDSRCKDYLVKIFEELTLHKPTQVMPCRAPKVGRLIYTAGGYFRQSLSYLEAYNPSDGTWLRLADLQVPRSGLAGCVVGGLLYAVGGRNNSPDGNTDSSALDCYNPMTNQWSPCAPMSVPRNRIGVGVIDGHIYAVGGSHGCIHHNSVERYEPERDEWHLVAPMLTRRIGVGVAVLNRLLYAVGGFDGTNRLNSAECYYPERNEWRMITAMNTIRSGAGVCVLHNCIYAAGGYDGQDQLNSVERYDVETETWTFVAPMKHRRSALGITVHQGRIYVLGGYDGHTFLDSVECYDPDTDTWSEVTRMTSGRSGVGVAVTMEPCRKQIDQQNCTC
T2 sequence (Q16236 whole entry): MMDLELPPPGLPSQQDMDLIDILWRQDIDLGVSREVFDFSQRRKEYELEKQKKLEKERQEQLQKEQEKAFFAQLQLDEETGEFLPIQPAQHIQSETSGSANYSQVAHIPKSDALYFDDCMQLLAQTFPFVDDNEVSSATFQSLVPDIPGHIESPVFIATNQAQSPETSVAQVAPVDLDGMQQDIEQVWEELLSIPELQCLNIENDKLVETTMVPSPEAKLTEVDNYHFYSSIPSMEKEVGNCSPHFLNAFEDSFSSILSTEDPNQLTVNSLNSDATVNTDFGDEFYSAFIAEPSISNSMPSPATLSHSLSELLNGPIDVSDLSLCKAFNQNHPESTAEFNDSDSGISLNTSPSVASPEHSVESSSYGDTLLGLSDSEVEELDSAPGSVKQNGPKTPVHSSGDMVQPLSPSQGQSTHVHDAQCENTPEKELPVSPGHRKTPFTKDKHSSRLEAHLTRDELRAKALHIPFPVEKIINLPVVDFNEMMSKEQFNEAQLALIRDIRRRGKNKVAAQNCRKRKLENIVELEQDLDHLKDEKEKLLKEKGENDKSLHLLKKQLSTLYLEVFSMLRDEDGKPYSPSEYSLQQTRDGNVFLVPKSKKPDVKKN
T2 sequence (Q14145 whole entry): as the sequence (Q14145 whole entry, the tested form may be a part) above

Compound `O=c1c2ccccc2nc2c3[nH]c4ccccc4c3ccn12` has a Kd [1] of 19.6 µM.
Work on `C[C@H](Oc1cccc(-c2cccc(-n3ncc(C(=O)O)c3[C@@H]3C[C@H]3c3cn(C)nn3)c2)c1)C1CCCCC1` yielded an IC50 (Keap1/Nrf2 [2]) of 0.01 µM.
Work on `O=C(O)c1ccc(NC2=C/C(=N/S(=O)(=O)c3ccc4ccccc4c3)c3ccccc3C2=O)cc1` yielded an IC50 (Keap1/Nrf2 [2]) of 2.7 µM and a Kd [3] of 0.158 µM.
For `COc1ccc(S(=O)(=O)N(Cc2nnn[nH]2)c2ccc(N(Cc3nnn[nH]3)S(=O)(=O)c3ccc(OC)cc3)c3ccccc23)cc1`, the Kd [4] was 0.0398 µM, the IC50 (Keap1/Nrf2 [2]) was 0.0144 µM and the IC50 (Keap1/Nrf2 [5]) was 0.0158 µM.
Work on `CCc1ccc(S(=O)(=O)N(CC(=O)O)c2cc(Sc3nc[nH]n3)c(O)c3ccccc23)cc1` yielded a Kd [3] of 0.453 µM and a Kd [6] of 1.14 µM.
For `COC1=C(NCC(=O)O)CC(O)(CO)C/C1=N\C(CO)C(=O)O` (stereo not drawn), the IC50 (Keap1/Nrf2 [2]) was 100 µM and 185 µM.
In the case of `COC1=C(NCC(=O)O)CC(O)(CO)C/C1=N\C(C(=O)O)C(C)O` (stereo not drawn), the IC50 (Keap1/Nrf2 [2]) is reported as 100 µM and 185 µM.
For `CCCCC1CCCN1C(=O)c1cccc(-c2cccc(-n3ncc(C(=O)O)c3C3CC3)c2)c1` (stereo not drawn), the IC50 (Keap1/Nrf2 [2]) was 0.063 µM.
With `CC1=NN(c2ccccc2)C(=O)/C1=C/c1ccc(OS(=O)(=O)c2ccccc2[N+](=O)[O-])cc1` the EC50 (Keap1/Nrf2 [7]) was 1.46 µM.
With `N[C@@H](CC(=O)O)C(=O)N[C@@H](CC(=O)O)C(=O)N[C@@H](Cc1c[nH]c2ccccc12)C(=O)O` (H-Asp-Asp-Trp-OH) the Kd [8] was 0.1 µM.
In the case of `NCCCC[C@H](NC(=O)[C@H](CCCCN)NC(=O)[C@@H](N)CC(=O)O)C(=O)O` (H-Asp-Lys-Lys-OH), the Kd [8] is reported as 0.12 µM.
Compound `N[C@@H](CCC(=O)O)C(=O)N[C@@H](Cc1c[nH]c2ccccc12)C(=O)N[C@@H](Cc1c[nH]c2ccccc12)C(=O)N[C@@H](Cc1c[nH]c2ccccc12)C(=O)O` (H-EWWW-OH) has a Kd [9] of 10 µM and a Kd [10] of 77 µM.
Compound `CC[C@H](C)[C@@H]1NC(=O)[C@H](CC(=O)O)NC(=O)[C@H](CCC(N)=O)NC(=O)[C@H](CCCNC(=N)N)NC(=O)[C@H](Cc2c[nH]c3ccccc23)NC(=O)[C@H](CC(C)C)NC(=O)[C@H]([C@@H](C)CC)NC(=O)[C@H](CC(=O)O)NC(=O)[C@@H](NC(=O)[C@H](CC(C)C)NC(=O)[C@H](CC(=O)O)NC(=O)[C@@H](N)CCSC)CSSC[C@@H](C(=O)N[C@@H](Cc2ccccc2)C(=O)N[C@@H](CO)C(=O)O)NC(=O)[C@H](Cc2ccccc2)NC(=O)[C@H](C(C)C)NC(=O)[C@H](CCC(=O)O)NC(=O)[C@H](CCCNC(=N)N)NC(=O)[C@H](CO)NC(=O)[C@H](C(C)C)NC(=O)CNC(=O)[C@H](CC(C)C)NC(=O)[C@H](CC(=O)O)NC1=O` (H-MDLCDILWRQDIDLGVSREVFCFS-OH; disulfide 4-22) has a Kd [8] of 0.051 µM.
`C[C@@H]1NC(=O)[C@H](CC(=O)O)NC(=O)[C@@H](N)Cc2ccc(cc2)OCCSC[C@@H](C(=O)O)NC(=O)[C@H](CCC(=O)O)NC(=O)CNC(=O)[C@H]([C@@H](C)O)NC(=O)[C@H](CCC(=O)O)NC1=O` (H-YDAETGEC-OH; linker 1-8 via CH2CH2) was tested, and the Kd [11] was 0.04 µM.
Compound `CC[C@H](C)[C@@H]1NC(=O)[C@H](CC(=O)O)NC(=O)[C@@H](N)Cc2ccc(cc2)OCCSC[C@@H](C(=O)O)NC(=O)[C@H](CCC(=O)O)NC(=O)CNC(=O)[C@H]([C@@H](C)O)NC(=O)[C@H](CCC(=O)O)NC1=O` (H-YDIETGEC-OH; linker 1-8 via CH2CH2) has a Kd [11] of 0.043 µM.
In the case of `CC(C)C[C@@H]1NC(=O)[C@H](Cc2ccccc2)NC(=O)[C@H](CCC(=O)O)NC(=O)CNC(=O)[C@H]([C@@H](C)O)NC(=O)[C@H](CCC(=O)O)NC(=O)[C@@H]2CCCN2C(=O)[C@H](CC(=O)O)NC(=O)[C@H](CC(C)C)NC(=O)[C@H](CCC(=O)NCCOCCOCC(=O)NCCCC[C@H](NC(=O)CC[C@@H]2NC(=O)[C@H](CCCNC(=N)N)NC(=O)[C@H](CCCNC(=N)N)NC(=O)[C@H](CCCNC(=N)N)NC(=O)[C@H](CCCNC(=N)N)NC(=O)[C@H](Cc3ccc4ccccc4c3)NC(=O)[C@H](Cc3ccccc3)NC2=O)C(N)=O)NC(=O)CNC1=O` (I: cyclo(DPETGEFLGEL) / II: cyclo([2Nal]RRRREF); linker I:10-II:6 via X1), the IC50 (Keap1/Nrf2 [2]) is reported as 0.153 µM and the Kd [8] is reported as 0.048 µM.
`CC(=O)N1CCN(c2ccc(OCC3COC(Cn4ccnc4)(c4ccc(Cl)cc4Cl)O3)cc2)CC1` (stereo not drawn) [KETOCONAZOLE] showed an IC50 (Keap1/Nrf2 [12]) of 1.67 µM.
